Some test systems named below: T47D; MDA-N; Hs-578T; 786-0; BT-549; DLD-1; RXF 631; LXFL 529; SNB-78.
Common to all, as to experiment: DTP human tumour cell line panel, 48 h

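A five-concentration, 48-hour dose response in 96-well plates underlies each endpoint, interpolated linearly between surrounding concentrations. Abbreviation: GI50, concentration required for 50% inhibition of growth.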 The source made the active and inactive calls. No stated cut-off is given here; in the data, active = GI50 up to about 1.1 µM and inactive = higher.

In general, GI50 refers to the concentration giving 50% growth inhibition.

As to `O=C(O)/C(Cc1ccnc2ccccc12)=N\O`, the GI50 in the assay on T47D, in the assay on MDA-N, in the assay on Hs-578T, with 786-0 and with BT-549 was > 100 µM (inactive) in each case.
As for `CC1Oc2c(c(O)cc3oc(=O)cc(-c4ccccc4)c23)C(=O)C1C` (stereo unspecified), the GI50 with DLD-1, in the assay with RXF 631, in the assay with LXFL 529 and in the assay with SNB-78 was > 100 µM (inactive) in each case.
For the compound `O=[N+]([O-])c1ccccc1S(=O)(=O)c1cccc2c1NCCC2`, the GI50 in the assay with MDA-N was 28.1 µM (inactive); in the assay with Hs-578T, 51.1 µM (inactive); with 786-0, > 100 µM (inactive); in the assay on BT-549 it was 32.1 µM (inactive).
In the case of `COC(=O)c1ccccc1/N=C(/NC1CCCCCC1)NS(=O)(=O)c1ccc(C)cc1`, the GI50 with T47D, in the assay with MDA-N, in the assay on Hs-578T, with 786-0 and in the assay with BT-549 was > 100 µM (inactive) each time.
Regarding `O=P1(c2ccccc2)Nc2ccccc2SSc2ccccc2N1`, the figures for the GI50 in the assay on DLD-1 and with SNB-78 were 17 µM (inactive) and 24.2 µM (inactive), respectively.
`Cc1ccc2oc3c(ccc(=O)n3C)c(=O)c2c1`: the GI50 with T47D, with MDA-N and with Hs-578T was > 100 µM (inactive) each time.
As for `Oc1ccc(NCn2c(=S)sc3ccccc32)cc1`, the GI50 in the assay with T47D was 34.4 µM (inactive); in the assay with Hs-578T it was 50 µM (inactive); in the assay on BT-549, > 100 µM (inactive).
On to `O=C(OCc1ccccc1)C(Cc1ccccc1)N(Cc1ccccc1)Cc1ccccc1` (stereo unspecified), for which the GI50 in the assay with DLD-1 was > 100 µM (inactive); with LXFL 529 it was 21.9 µM (inactive); with SNB-78, > 100 µM (inactive).
`COc1cc(/C=C2\N=C(c3ccccc3)N(c3ccc(C(=O)c4ccccc4)cc3N3C(=O)/C(=C/c4cc(OC)c(OC)c(OC)c4)N=C3c3ccccc3)C2=O)cc(OC)c1OC`: the GI50 is 4.93 µM (inactive) with T47D; 2.73 µM (inactive) in the assay with MDA-N; 17.9 µM (inactive) in the assay with Hs-578T; 16.8 µM (inactive) in the assay on 786-0; 14.4 µM (inactive) with BT-549.
In the case of `CN(C)CCNC(=O)c1cc(Cl)cc2ccc(-c3ccccc3)nc12`, the GI50 is 3.3 µM (inactive) in the assay with DLD-1 and 8.13 µM (inactive) with SNB-78.
The corresponding values for `C=CCC(O[Si](C)(C)C(C)(C)C)c1cc(O[Si](C)(C)C(C)(C)C)ccc1OC` (stereo unspecified) are > 70.3 µM (inactive) and > 49.2 µM (inactive).
In the case of `CN1CCN(c2cc(-c3cc4ccccc4o3)oc(=O)c2C#N)CC1`, the GI50 in the assay on DLD-1 was 76 µM (inactive); with RXF 631 it was 41.4 µM (inactive); in the assay with LXFL 529, 81.7 µM (inactive); with SNB-78, > 100 µM (inactive).
`CC(=O)OC1CC2(O)C(CCC3(C)C(c4ccc(=O)oc4)CCC32O)C2(C)C1=CC(O)C1OC12` (stereo unspecified): the values for the GI50 in the assay with DLD-1 and with SNB-78 were 0.0506 µM (active) and 0.0442 µM (active), respectively.
The like results for `Oc1c(CNCCCN2CCCC2)cc(Cl)c2cccnc12` were, in that order, 3.22 µM (inactive) and 14.2 µM (inactive).
For the compound `NC1=C(C(=O)O)C(=O)C(Nc2c(O)cccc2C(=O)O)=CC1=O`, the GI50 in the assay on DLD-1 is 31.6 µM (inactive); in the assay with RXF 631, > 100 µM (inactive); with LXFL 529, > 100 µM (inactive); with 786-0, > 100 µM (inactive); in the assay on SNB-78 it was > 100 µM (inactive).
In the case of `OC1(c2ccccc2)CC2CCC(C1)N2CCc1ccccc1` (stereo unspecified), the GI50 is 45 µM (inactive) with T47D; 56.8 µM (inactive) with MDA-N; 5.27 µM (inactive) in the assay on Hs-578T; > 100 µM (inactive) in the assay with 786-0; 40.1 µM (inactive) with BT-549.
Take `CCOC(=O)Cn1c(=O)c2cc(C)cc3c(Cl)nc4c(OC)c(OC)cc1c4c32`: the GI50 with MDA-N was > 100 µM (inactive); with Hs-578T, 31.8 µM (inactive); with 786-0, 29.7 µM (inactive); with BT-549 it was 56.6 µM (inactive).
Consider `COC(=O)C1=C(C)N2CCOC2(C)C(C(=O)OC)C1c1ccc[nH]1` (stereo unspecified), for which the GI50 in the assay on DLD-1 and with LXFL 529 was > 100 µM (inactive) each time.
For `CC(C)(C)[Si](C)(C)OCC1OC(n2cnc3c(N)ncnc32)CC1OS(C)(=O)=O` (stereo unspecified), the GI50 with T47D was > 100 µM (inactive); in the assay with MDA-N, > 100 µM (inactive); with BT-549, 54 µM (inactive).
For `COC(=O)[C@@H]1C=C[C@H](NC(C)=O)C1`, the GI50 in the assay with T47D, in the assay on MDA-N, with Hs-578T and in the assay on BT-549 was > 100 µM (inactive) throughout.
Regarding `COC(=O)c1cc(NC2OCC(OC(C)=O)C(OC(C)=O)C2OC(C)=O)nc(SC)c1C(=O)OC` (stereo unspecified), the GI50 in the assay on T47D, in the assay on MDA-N, in the assay with Hs-578T, in the assay with 786-0 and in the assay on BT-549 was > 100 µM (inactive) throughout.
As to `Cc1cc(C)cc(Sc2c([N+](=O)[O-])ncn2C)c1`, the GI50 in the assay with DLD-1 was 11.9 µM (inactive); with RXF 631, 16 µM (inactive); in the assay with LXFL 529, 7.83 µM (inactive); with 786-0, 24 µM (inactive); in the assay on SNB-78 it was 13.6 µM (inactive).
For `CN1c2ccccc2C(=O)NC12CCN(CCCC(=O)c1ccc(F)cc1)CC2`, the GI50 with T47D is 29 µM (inactive); in the assay on MDA-N, 88.7 µM (inactive); in the assay with Hs-578T, > 100 µM (inactive); with 786-0, 74.3 µM (inactive); in the assay with BT-549, 58.3 µM (inactive).
For `CC1=C(C)[C@@]2(C)O[C@@]2(C)O[C@@]2(C)O[C@@]12C`, the GI50 in the assay on T47D, with MDA-N, in the assay with Hs-578T and with BT-549 was > 100 µM (inactive) each time.
As for `C1CC2=C(C1)[Se]C(=C1Sc3nsnc3S1)[Se]2`, the GI50 is > 100 µM (inactive) in the assay with T47D; 21.7 µM (inactive) in the assay with MDA-N; > 100 µM (inactive) in the assay with Hs-578T; > 100 µM (inactive) in the assay with 786-0; > 100 µM (inactive) with BT-549.
Consider `Cc1cc(S(=O)(=O)Nc2nc(Nc3ccccc3)n[nH]2)c(SSc2cc(Cl)c(C)cc2S(=O)(=O)Nc2nc(Nc3ccccc3)n[nH]2)cc1Cl`, for which the GI50 with T47D was 67.5 µM (inactive); in the assay on MDA-N it was > 100 µM (inactive); in the assay on Hs-578T, 86.1 µM (inactive); with BT-549, > 100 µM (inactive).
`Cc1cc(C)nc(NS(=O)(=O)c2ccc(Nc3c4ccccc4nc4c(C(=O)N5CCN(CCOS(C)(=O)=O)CC5)cccc34)cc2)n1`: the GI50 with DLD-1 and in the assay with SNB-78 was > 100 µM (inactive) in each case.
In the case of `Cc1ccc(S(=O)(=O)N(CC(=O)O)c2ccccc2)cc1`, the GI50 in the assay with DLD-1, in the assay on LXFL 529 and in the assay on 786-0 was > 100 µM (inactive) each time.
As for `COC(=S)OC1CC(n2cnc3c(N)ncnc32)OC1CO[Si](C)(C)C(C)(C)C` (stereo unspecified), the values for the GI50 in the assay with T47D, in the assay with MDA-N and in the assay on BT-549 were 11.8 µM (inactive), 18.5 µM (inactive) and 21.9 µM (inactive), respectively.
Consider `O=c1cc(-c2cc(O)c(O)c(-c3c(O)cc4oc(-c5ccc(O)c(O)c5)cc(=O)c4c3O)c2)oc2cc(O)cc(O)c12`, for which the GI50 with T47D was 11.3 µM (inactive); in the assay on MDA-N, > 25 µM (inactive); in the assay on Hs-578T it was > 25 µM (inactive); with BT-549, > 25 µM (inactive).
On to `CC(C)NC(=O)CN1CCN(C2=C(Cl)C(=O)c3c(O)ccc(O)c3C2=O)CC1`, for which the GI50 is 1.91 µM (inactive) in the assay with T47D; 1.49 µM (inactive) in the assay with MDA-N; 2.39 µM (inactive) in the assay on Hs-578T; 2.56 µM (inactive) with 786-0; 1.49 µM (inactive) with BT-549.
With `COC(=O)CCC(C)C1CCC2C3CCC4CC5CCC4(C)C3(O5)C(Br)C(Br)C12C` (stereo unspecified), the GI50 with T47D was 61.9 µM (inactive); in the assay on MDA-N it was > 100 µM (inactive); in the assay on Hs-578T it was > 100 µM (inactive); in the assay on 786-0, > 100 µM (inactive); in the assay with BT-549 it was > 100 µM (inactive).
Consider `COc1cccc2c1C(=O)c1c(O)c3c(c(O)c1C2=O)C[C@@](O)(C(=O)CO)C[C@@H]3OC1CC(N2CCOCC2)C(O)C(C)O1` (stereo partly specified), for which the GI50 in the assay with DLD-1 is 0.00277 µM (active); in the assay with T47D, 0.0574 µM (active); in the assay on MDA-N, 0.0328 µM (active); with Hs-578T, 0.0249 µM (active); in the assay on BT-549 it was 0.0525 µM (active); in the assay on SNB-78 it was 0.0025 µM (active).
With `COc1nc2cccc(C(O)c3ccccc3)c2nc1-c1ccccc1` (stereo unspecified), the GI50 was 8.57 µM (inactive) with T47D, 1.55 µM (inactive) in the assay on MDA-N, 2.28 µM (inactive) in the assay with Hs-578T and 13.9 µM (inactive) in the assay with BT-549.
`COc1cccc(C2C(C(=O)O)=C(CO)Oc3cc4c(cc32)OCO4)c1OC` (stereo unspecified): the GI50 in the assay on DLD-1, with RXF 631, in the assay on LXFL 529 and with SNB-78 was > 100 µM (inactive) in each case.
`C=C1C(=O)O[C@H]2[C@H]1[C@@H](OC(=O)C=C(C)C)CC1=C[C@@H](C[C@@]3(C)O[C@@H]23)OC1=O`: the GI50 in the assay on DLD-1 is 1.6 µM (inactive).
Take `NNC(=O)CCc1ccc2ccc3ccccc3c2c1`: the GI50 was 70.6 µM (inactive) with T47D; > 100 µM (inactive) in the assay on MDA-N; 57.7 µM (inactive) in the assay on Hs-578T; 94.4 µM (inactive) in the assay with 786-0; 55.8 µM (inactive) in the assay on BT-549.
The like results for `CC1CCC2N(C1)CC1C3(O)CC45OC6(O)C(O)CCC4(C)C6CCC5C3(O)CC(O)C1(O)C2(C)O` (stereo unspecified) were, in that order, > 100 µM (inactive), > 100 µM (inactive), > 100 µM (inactive), > 100 µM (inactive) and > 100 µM (inactive).
Regarding `C=CCc1cccc(/C=N\N/C(N)=N/O)c1O`, the GI50 in the assay with DLD-1 was 4.84 µM (inactive); in the assay with SNB-78, 21.5 µM (inactive).

Source of the values: ChEMBL document CHEMBL1201862, “PubChem BioAssay data set” (2004).
